Assays:
PTEN mRNA = assay: Immunoblot of PTEN and phosphorylated Akt after GeneBloc transfection of 3Y1 cells; assay type: cell-based, rat
Method: A total of three different antisense oligonucleotides, also referred to as geneblocs herein, namely PTEN 48, PTEN 57 and PTEN 53 were transfected into rat-embryo fibroblast cell line together with a negative control comprising a randomised sequence (also referred to herein as GBC). More particularly, 3Y1 cells on 10 cm plates were transfected with 15 or 30 nM of the three different PTEN specific Geneblocs 48, 57 and 53 and with GBC. After 48 h cells were harvested and the cell extracts were analyzed by immunoblotting for the relative protein amounts of p110, Akt, phosphorylated Akt (P*-Akt) and PTEN as indicated on the right. […] The concentration dependency of the antisense oligonucleotides can be particularly well seen from the use of PTEN 57 and PTEN 53 and was confirmed by further experiments. The most powerful antisense oligonucleotide among said three antisense oligonucleotides was PTEN 53. P110 was used as a marker to reflect the loading of each of the lanes.
In the corresponding experiment PTEN 53 was used as the antisense oligonucleotide and a total of four mismatches were introduced to the particular sequence with the total length of PTEN 57 being 23 nucleotides. Again, GBC was used as a negative control. The sequence of the mismatch oligonucleotide is BucucauuTsTssCssTspl sTssTssGssTssGsscucacgaB (SEQ ID No. 33) with B representing an inverted abasic nucleotide. In addition an antisense oligonucleotide was prepared specific for the mRNA of luciferase inhibiting luciferase expression in cells engineered to express the recombinant firefly gene. The respective lane on the Western blot is designated as “luc”. The same experiment was carried out using either 30 nM or 60 nM antisense oligonucleotide. As mentioned in connection with FIG. 3, P110 serves as an internal loading standard.
Transfections were carried out in 96 well or 10-cm plates (at 30% to 50% confluency) by using various cationic lipids such as Oligofectamine, Lipofectamine (Life Technologies), NC388 (Ribozyme Pharmaceuticals, Inc., Boulder, CO), or FuGene 6 (Roche) according to the manufacturer's instructions. […] molecules, including third generation antisense molecules, were transfected by adding pre-formed 5× concentrated complex of GeneBloc and lipid in serum-free medium to cells in complete medium. The total transfection volume was 100 μl for cells plated in 96 wells and 10 ml for cells in 10 cm plates. The final lipid concentration was 0.8 to 1.2 μg/ml depending on cell density; the GeneBloc concentration is indicated in each experiment.
Cells were washed twice with cold phosphate-buffered saline and lysed at 4° C. in lysis buffer containing 20 mM Tris (pH 7.5), 137 mM NaCl, 15% (vol/vol) glycerol, 1% (vol/vol) Nonidet P-40 (NP-40), 2 mM phenylmethylsulfonyl fluoride, […], 20 mM leupeptin, 2 mM benzamidine, 1 mM sodium vanadate, 25 mM […]-glycerol phosphate, 50 mM NaF and 10 mM NaPPi. Lysates were cleared by centrifugation at 14,000× g for 5 minutes and aliquots of the lysates were analyzed for protein expression by Western-blotting: Samples were separated by SDS-PAGE and transferred to nitrocellulose-filters (Schleicher & Schuell). Filters were blocked in TBST buffer (10 mM Tris-HCl (pH 7.5), 150 mM NaCl, 0.05% (vol/vol) Tween 20, 0.5% (wt/vol) sodium azide) containing 5% (wt/vol) dried milk. The respective antibodies were added in TBST at appropriate dilutions. Bound antibody was detected using anti-mouse- or anti-rabbit-conjugated horse radish peroxidase (Transduction Laboratories, BD) in TBST, washed, and developed using the SuperSignal West Dura (Pierce) or ECL (Amersham) chemoluminescence substrates. […]
To further ensure that Akt phosphorylation is not caused by an artefact or by stress imposed through the transfection conditions we tested various negative control third generation antisense molecules (negative control GeneBlocs). […]

3Y1 cells = assay: UV-induced apoptosis in 3Y1 cells after GeneBloc treatment (cleaved caspase 3); assay type: cell-based, rat; details: 48 h GeneBloc treatment, UV irradiation
Text: Activation of the P13K pathway interferes with caspase-mediated apoptosis through Akt-activation. Apoptotic stimuli may either be cytokines like TNF, or UV-irradiation. In the present example of which the results of a Western blot analysis are shown in FIG. 7B, UV-irradiation was used as to induce apoptosis. PTEN is an inhibitor of PI-3K action. […] Activated Akt blocks caspases-mediated apoptosis. Apoptosis was monitored by the presence of cleaved Caspase 3.
If knock down of PTEN expression mediated by third generation antisense molecules (GeneBlocs) results in a functional activation of PI 3-kinase signalling, then increased phosphorylation and activation of Akt should interfere with the effects of apoptotic stimuli. […] It was previously shown that rat embryo fibroblasts undergo apoptosis after UV irradiation and that this response can be inhibited by activation of the PI 3-kinase pathway, and specifically by activated Akt (Kulik, G., Klippel, A. and Weber, M. J. (1997). Antiapoptotic signalling by the insulin-like growth factor I receptor, phosphatidylinositol 3-kinase, and Akt. Mol Cell Biol 17, 1595-1606)). We exposed 3Y1 cells to UV light after 48 h GeneBloc treatment. 3 h after irradiation cell extracts were harvested and analyzed for the presence of cleaved caspase 3 which is indicative for apoptosis. […] Cells which were not exposed to UV light after transfection contained very little amounts of cleaved caspase 3.

[1] = 30 nM or 60 nM, PTEN 53 versus negative control GeneBlocs
[2] = 3Y1 cells, 15 or 30 nM GeneBloc, 48 h
[3] = 3Y1 cells, 15 or 30 nM GeneBloc, 48 h, listed as PTEN GeneBloc 53

Substance: ucuccuuTTGTTTCTGcuaacga (UCUCCUUTTGTTTCTGCUAACGA; chemistry not fully specified) [PTEN 53, third generation antisense oligonucleotide (GeneBloc) against PTEN]
- PTEN protein / PTEN mRNA degradation (immunoblot) (PTEN mRNA; [1]): inhibited PTEN expression
- phosphorylated Akt (P*-Akt) (immunoblot) (PTEN mRNA; [1]): resulted in the phosphorylation of Akt
- phosphorylated Akt (P*-Akt) (immunoblot) (PTEN mRNA; 30 nM or 60 nM, PTEN 53 versus negative control GeneBlocs, listed as PTEN GeneBloc 53): caused an increase in Akt phosphorylation
- PTEN protein (immunoblot) (PTEN mRNA; [2]): no longer present
- phosphorylated Akt (P*-Akt) (immunoblot) (PTEN mRNA; [2]): phosphorylated Akt could be detected
- PTEN protein (immunoblot) (PTEN mRNA; [3]): most efficient knock down in PTEN expression
- phosphorylated Akt (P*-Akt) (immunoblot) (PTEN mRNA; [3]): strongest increase in Akt phosphorylation
- ranking among the three PTEN antisense oligonucleotides (PTEN mRNA; 3Y1 cells, 15 or 30 nM, 48 h): most powerful
- phosphorylated Akt (3Y1 cells): phosphorylated Akt is generated

From US20030135033A1, “Compounds and methods for the identification and/ or validation of a target” (priority 2002, published 2003)
